This note sets out measurements from paper PMC10587737, “Dracorhodin targeting CMPK2 attenuates inflammation: A novel approach to sepsis therapy” (Clinical and Translational Medicine, 2023).

The assay addresses CMPK2 mutant at K282. Nature of the assay: ADP-GLO kinase activity of CMPK2 K282 mutant. Format: biochemical, human. The method, then:
Human CMPK2 and K265, K282 and K320 mutated CMPK2 cDNA were cloned and inserted into the pTT5 vector, and the constructed plasmid was amplified by the DH5α strain. The C‐terminus of the cDNA was fused with a 6× His tag, and the N‐terminus was truncated by 22 amino acids (Figure 1B–F and Supporting Information Figure S5A,B). When the free‐style 293‐F cells reached the proper density, approximately 1 mg of expression plasmid was premixed with 3 mg polyethylenimine in UltraFectin medium and incubated prior to transfection. This mixture was then added to the appropriate amount of fresh cell culture medium, incubated for 30 min and collected after 48 h.
CMPK2 activity was measured by the ADP‐GLO kinase assay according to the guidelines specified in the manufacturer's instructions. In the activity assay, the amount of ADP formed in the CMPK2 reaction was equal to the ATP consumption and proportional to the increase in luminescence generated in the luciferase reaction, which is the experimental principle shown in Figure 1I.
For orientation: In ADP-Glo the light output rises with the ADP produced.

Consider `COc1c2ccc(-c3ccccc3)oc-2cc(=O)c1C` [compound 73, Dracohodin perochlorate], for which the “kinase activity of the mutant at K282” value is on record as “slight inhibitory effect”.
